Reference: PubChem BioAssay AID212 (DTP/NCI, 2004)
Inconclusive results are not listed.

Test system: BDF1 mice, colon carcinoma 38 sc, T/C %
Test: NCI In Vivo Anticancer Drug Screen. Data for tumor model Colon Carcinoma 38 (subcutaneous) in B6D2F1 (BDF1) mice
Conditions: endpoint: median tumor weight (est.), higher = larger tumour
Summary of the method: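 Compound antitumor activity was assessed in mice carrying transplantable tumors. Survival or tumor size was recorded, and each value is the treated-group measurement divided by that of the vehicle-treated control group.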

SMILES: CC(C)CC(=O)NC(C(=O)NC(C(=O)NC(CC(C)C)C(O)CC(=O)NC(C)C(=O)NC(CC(C)C)C(O)CC(=O)O)C(C)C)C(C)C (stereo not given)
- T/C (dose: 25.0 mg/kg/injection, schedule: Q07DX002 (ip), vehicle: Klucel (hydroxypropylcellulose) (HPC)): 79 % of control
- T/C (dose: 50.0 mg/kg/injection, schedule: Q07DX002 (ip), vehicle: Klucel (hydroxypropylcellulose) (HPC)): 109 % of control
- T/C (dose: 100.0 mg/kg/injection, schedule: Q07DX002 (ip), vehicle: Klucel (hydroxypropylcellulose) (HPC)): 95 % of control
- T/C (dose: 200.0 mg/kg/injection, schedule: Q07DX002 (ip), vehicle: Klucel (hydroxypropylcellulose) (HPC)): 120 % of control

SMILES: C1CCC2C[N-]CCC2C1.C1CCC2C[N-]CCC2C1.C1CCC2C[N-]CCC2C1.C1CCC2C[N-]CCC2C1.[Cl][Rh][Cl] (stereo not given)
- T/C (dose: 1.0 mg/kg/injection, schedule: Q07DX003 (ip), vehicle: saline): 107 % of control
- T/C (dose: 2.0 mg/kg/injection, schedule: Q07DX003 (ip), vehicle: saline): 62 % of control
- T/C (dose: 4.0 mg/kg/injection, schedule: Q07DX003 (ip), vehicle: saline): 82 % of control
- T/C (dose: 8.0 mg/kg/injection, schedule: Q07DX003 (ip), vehicle: saline): 87 % of control
- T/C (dose: 16.0 mg/kg/injection, schedule: Q07DX003 (ip), vehicle: saline): 78 % of control

SMILES: CCOC(=O)c1[nH]c2cccc3c2c1CC(Br)C3=O (stereo not given)
- T/C (dose: 25.0 mg/kg/injection, schedule: Q07DX002 (ip), vehicle: saline with Tween-80): 120 % of control
- T/C (dose: 50.0 mg/kg/injection, schedule: Q07DX002 (ip), vehicle: saline with Tween-80): 92 % of control
- T/C (dose: 100.0 mg/kg/injection, schedule: Q07DX002 (ip), vehicle: saline with Tween-80): 90 % of control
- T/C (dose: 200.0 mg/kg/injection, schedule: Q07DX002 (ip), vehicle: saline with Tween-80): 78 % of control

SMILES: ClCC[Se](Cl)(Cl)c1ccccc1
- T/C (dose: 1.56 mg/kg/injection, schedule: Q07DX002 (ip), vehicle: saline): 84 % of control
- T/C (dose: 1.56 mg/kg/injection, schedule: Q07DX002 (ip), vehicle: suspension in saline): 83 % of control
- T/C (dose: 3.12 mg/kg/injection, schedule: Q07DX002 (ip), vehicle: saline): 96 % of control
- T/C (dose: 6.25 mg/kg/injection, schedule: Q07DX002 (ip), vehicle: saline): 105 % of control
- T/C (dose: 6.25 mg/kg/injection, schedule: Q07DX002 (ip), vehicle: suspension in saline): 88 % of control
- T/C (dose: 12.5 mg/kg/injection, schedule: Q07DX002 (ip), vehicle: saline): 90 % of control

SMILES: CCOC(=O)Nc1cc2c(c(N)n1)N=C(c1ccccc1)CN2
- T/C (dose: 2.5 mg/kg/injection, schedule: Q07DX002 (ip), vehicle: saline with Tween-80): 66 % of control
- T/C (dose: 5.0 mg/kg/injection, schedule: Q07DX002 (ip), vehicle: saline with Tween-80): 73 % of control
- T/C (dose: 10.0 mg/kg/injection, schedule: Q07DX002 (ip), vehicle: saline with Tween-80): 97 % of control

SMILES: C/C=C1\C[C@@H]2C(OC)Nc3cc(O)c(OC)cc3C(=O)N2C1 (stereo not given in full)
- T/C (dose: 0.06 mg/kg/injection, schedule: Q07DX002 (ip), vehicle: saline): 121 % of control
- T/C (dose: 0.12 mg/kg/injection, schedule: Q07DX002 (ip), vehicle: saline): 98 % of control
- T/C (dose: 0.12 mg/kg/injection, schedule: Q07DX002 (ip), vehicle: suspension in saline): 122 % of control
- T/C (dose: 0.25 mg/kg/injection, schedule: Q07DX002 (ip), vehicle: saline): 102 % of control
- T/C (dose: 0.25 mg/kg/injection, schedule: Q07DX002 (ip), vehicle: suspension in saline): 108 % of control
- T/C (dose: 0.5 mg/kg/injection, schedule: Q07DX002 (ip), vehicle: saline): 102 % of control
- T/C (dose: 0.5 mg/kg/injection, schedule: Q07DX002 (ip), vehicle: suspension in saline): 166 % of control
- T/C (dose: 1.0 mg/kg/injection, schedule: Q07DX002 (ip), vehicle: saline): 105 % of control
- T/C (dose: 1.0 mg/kg/injection, schedule: Q07DX002 (ip), vehicle: suspension in saline): 84 % of control

SMILES: O=CC(S)CO (stereo not given)
- T/C (dose: 12.5 mg/kg/injection, schedule: Q07DX002 (ip), vehicle: suspension in saline): 76 % of control
- T/C (dose: 25.0 mg/kg/injection, schedule: Q07DX002 (ip), vehicle: suspension in saline): 95 % of control
- T/C (dose: 50.0 mg/kg/injection, schedule: Q07DX002 (ip), vehicle: suspension in saline): 113 % of control
- T/C (dose: 200.0 mg/kg/injection, schedule: Q07DX002 (ip), vehicle: suspension in saline): 97 % of control
